Experimental data taken from paper PMC4780411 (Journal of chemical information and modeling, 2015).

Experiments:
human ERβ = human ERβ (Homo sapiens, UniProt Q92731); assay: competitive radiometric binding assay with [3H]estradiol, ERβ
human ERα = target: T1, human ERα (Homo sapiens, UniProt P03372); assay: competitive radiometric binding assay with [3H]estradiol, ERα
T1 sequence (P03372 1-595): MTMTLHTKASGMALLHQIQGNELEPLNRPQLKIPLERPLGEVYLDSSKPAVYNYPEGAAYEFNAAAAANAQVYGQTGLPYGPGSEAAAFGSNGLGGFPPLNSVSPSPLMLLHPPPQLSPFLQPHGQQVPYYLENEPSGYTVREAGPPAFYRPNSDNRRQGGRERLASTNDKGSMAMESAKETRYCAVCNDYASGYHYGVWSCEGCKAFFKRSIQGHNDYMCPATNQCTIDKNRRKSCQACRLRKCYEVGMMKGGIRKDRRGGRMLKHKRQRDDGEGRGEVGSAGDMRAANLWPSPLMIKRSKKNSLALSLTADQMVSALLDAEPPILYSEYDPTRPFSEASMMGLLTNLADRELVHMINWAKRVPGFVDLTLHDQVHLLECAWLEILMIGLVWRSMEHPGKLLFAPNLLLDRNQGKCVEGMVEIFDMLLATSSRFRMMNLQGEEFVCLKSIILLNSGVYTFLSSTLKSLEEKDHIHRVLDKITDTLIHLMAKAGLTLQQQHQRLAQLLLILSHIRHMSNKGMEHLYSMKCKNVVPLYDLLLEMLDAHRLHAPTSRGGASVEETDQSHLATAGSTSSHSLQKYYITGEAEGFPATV

Sequence of human ERβ (Q92731 whole entry): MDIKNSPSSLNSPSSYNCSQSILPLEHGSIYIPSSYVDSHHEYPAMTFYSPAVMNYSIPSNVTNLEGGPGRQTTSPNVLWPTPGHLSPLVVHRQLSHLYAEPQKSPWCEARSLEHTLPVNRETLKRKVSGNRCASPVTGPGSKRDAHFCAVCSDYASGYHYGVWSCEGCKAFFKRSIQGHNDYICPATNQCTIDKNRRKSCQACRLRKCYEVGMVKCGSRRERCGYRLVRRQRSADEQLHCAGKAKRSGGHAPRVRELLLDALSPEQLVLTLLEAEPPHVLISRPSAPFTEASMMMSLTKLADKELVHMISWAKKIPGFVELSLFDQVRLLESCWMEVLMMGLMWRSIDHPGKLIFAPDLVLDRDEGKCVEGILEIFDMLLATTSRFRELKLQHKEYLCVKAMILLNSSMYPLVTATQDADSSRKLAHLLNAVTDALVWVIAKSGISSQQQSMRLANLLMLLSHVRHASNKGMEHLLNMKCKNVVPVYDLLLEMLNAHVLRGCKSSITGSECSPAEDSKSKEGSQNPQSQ

Ki (human ERβ): 3.1 ± 0.9 µM
Ki (human ERα): 2.56 ± 0.5 µM
Structure (SMILES): O=C1C[C@@H](c2ccc(O)cc2)Oc2cc(O)cc(O)c21 [NCI-34875, Naringenin]
